Patent US20250382297A1, “INHIBITORS OF FGFR2 AND FGFR3 AND USES THEREOF” (Insilico Medicine IP Limited, priority 2022, published 2025)
pIC50: −log10 of the molar value. Where two headings read alike, the source gives them in different places.

Key:
[1] = target: FGFR1 (Homo sapiens (Human), UniProt P11362); assay: FGFR biochemical assay (LanthaScreen TR-FRET kinase assay), FGFR1
Protocol: (§1) Convert Ratio values to percent inhibition values (Percent inhibition=(max−sample Ratio)/(max−min)*100) where “min” means the Ratio of no enzyme control and “max” means the Ratio of DMSO control. • Data are analyzed and curve fitting is performed by XLFit Excel add-in version 5.4.0.8. The IC50 calculation equation is: Y=Bottom+(Top-Bottom)/(1+ (IC50/X)^HillSlope.

[2] = target: FGFR2 (Homo sapiens (Human), UniProt P21802); assay: FGFR biochemical assay (LanthaScreen TR-FRET kinase assay), FGFR2
Protocol: as §1

[3] = target: FGFR3 (Homo sapiens (Human), UniProt P22607); assay: FGFR biochemical assay (LanthaScreen TR-FRET kinase assay), FGFR3
Protocol: as §1

[4] = read-out: FGFR1 IC50, incubation with enzyme at room temperature for 10 minutes before substrate, ATP 28 μM, FGFR1 0.01 nM
[5] = read-out: FGFR2 IC50, incubation with enzyme at room temperature for 10 minutes before substrate, ATP 22 μM, FGFR2 0.01 nM
[6] = read-out: FGFR3 IC50, incubation with enzyme at room temperature for 10 minutes before substrate, ATP 35 μM, FGFR3 0.1 nM

Chain of FGFR3 (P22607 23-806): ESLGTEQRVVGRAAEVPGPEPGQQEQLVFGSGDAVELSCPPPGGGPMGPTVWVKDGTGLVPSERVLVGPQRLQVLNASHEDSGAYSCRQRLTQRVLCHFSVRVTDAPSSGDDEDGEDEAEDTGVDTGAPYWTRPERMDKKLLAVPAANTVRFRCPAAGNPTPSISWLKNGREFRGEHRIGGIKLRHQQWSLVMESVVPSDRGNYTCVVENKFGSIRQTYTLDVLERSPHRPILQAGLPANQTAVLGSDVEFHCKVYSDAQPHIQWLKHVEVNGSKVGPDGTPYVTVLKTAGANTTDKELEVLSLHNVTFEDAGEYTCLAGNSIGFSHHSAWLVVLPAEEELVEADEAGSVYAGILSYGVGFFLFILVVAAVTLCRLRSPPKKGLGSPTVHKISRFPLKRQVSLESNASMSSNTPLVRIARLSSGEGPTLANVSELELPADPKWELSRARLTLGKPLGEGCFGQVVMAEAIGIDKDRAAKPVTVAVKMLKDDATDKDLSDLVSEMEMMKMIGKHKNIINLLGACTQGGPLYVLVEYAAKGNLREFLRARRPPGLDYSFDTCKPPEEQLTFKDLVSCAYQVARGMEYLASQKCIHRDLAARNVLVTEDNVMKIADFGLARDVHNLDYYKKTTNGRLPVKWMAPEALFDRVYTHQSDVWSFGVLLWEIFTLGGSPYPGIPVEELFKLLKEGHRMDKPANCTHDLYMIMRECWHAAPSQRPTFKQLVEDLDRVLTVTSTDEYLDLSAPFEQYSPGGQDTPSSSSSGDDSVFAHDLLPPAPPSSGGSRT
Chain of FGFR1 (P11362 22-822): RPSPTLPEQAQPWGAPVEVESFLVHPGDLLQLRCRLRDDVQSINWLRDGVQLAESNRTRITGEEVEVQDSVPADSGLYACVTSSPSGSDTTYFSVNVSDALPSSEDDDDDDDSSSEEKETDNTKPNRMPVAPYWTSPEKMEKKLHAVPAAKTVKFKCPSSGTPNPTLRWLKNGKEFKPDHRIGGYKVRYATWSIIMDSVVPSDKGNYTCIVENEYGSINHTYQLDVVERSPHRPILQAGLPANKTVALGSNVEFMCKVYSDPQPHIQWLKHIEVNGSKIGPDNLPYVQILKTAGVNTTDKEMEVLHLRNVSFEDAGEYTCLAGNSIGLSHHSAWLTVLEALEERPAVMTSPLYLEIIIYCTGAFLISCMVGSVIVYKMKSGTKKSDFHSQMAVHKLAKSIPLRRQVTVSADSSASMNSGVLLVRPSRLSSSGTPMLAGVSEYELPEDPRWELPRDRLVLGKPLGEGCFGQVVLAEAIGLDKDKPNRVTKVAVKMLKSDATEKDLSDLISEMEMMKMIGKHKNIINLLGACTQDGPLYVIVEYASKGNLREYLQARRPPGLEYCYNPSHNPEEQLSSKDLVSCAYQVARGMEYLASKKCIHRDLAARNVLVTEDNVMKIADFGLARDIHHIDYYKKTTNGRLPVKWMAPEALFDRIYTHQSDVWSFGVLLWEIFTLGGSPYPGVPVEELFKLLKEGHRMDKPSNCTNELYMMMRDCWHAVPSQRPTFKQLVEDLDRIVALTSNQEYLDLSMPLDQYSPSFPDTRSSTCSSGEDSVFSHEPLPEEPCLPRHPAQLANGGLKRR
Chain of FGFR2 (P21802 22-821): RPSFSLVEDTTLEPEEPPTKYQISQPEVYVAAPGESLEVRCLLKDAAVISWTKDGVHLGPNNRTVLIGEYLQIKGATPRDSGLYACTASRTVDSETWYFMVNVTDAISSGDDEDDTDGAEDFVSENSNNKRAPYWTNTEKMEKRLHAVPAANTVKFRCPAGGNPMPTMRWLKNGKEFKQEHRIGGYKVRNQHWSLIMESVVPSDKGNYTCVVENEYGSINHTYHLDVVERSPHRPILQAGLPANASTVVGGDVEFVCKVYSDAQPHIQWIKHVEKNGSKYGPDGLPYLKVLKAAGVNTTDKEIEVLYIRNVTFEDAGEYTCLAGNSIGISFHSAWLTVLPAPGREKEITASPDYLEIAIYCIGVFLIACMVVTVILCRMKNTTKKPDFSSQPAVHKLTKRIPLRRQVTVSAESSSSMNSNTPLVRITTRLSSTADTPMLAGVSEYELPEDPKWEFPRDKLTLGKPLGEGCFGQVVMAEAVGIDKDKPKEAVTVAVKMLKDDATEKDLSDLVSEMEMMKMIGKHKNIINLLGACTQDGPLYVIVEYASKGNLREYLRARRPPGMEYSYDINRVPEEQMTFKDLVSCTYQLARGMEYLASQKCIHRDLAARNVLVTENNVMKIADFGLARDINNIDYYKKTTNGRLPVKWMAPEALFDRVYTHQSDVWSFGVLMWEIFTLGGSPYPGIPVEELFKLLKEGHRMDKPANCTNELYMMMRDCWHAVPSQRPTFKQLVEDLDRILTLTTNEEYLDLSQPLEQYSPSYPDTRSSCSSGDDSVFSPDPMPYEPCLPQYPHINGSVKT

Row | Compound | pIC50 [1, 4] | pIC50 [2, 5] | pIC50 [3, 6] | pIC50 [1] | pIC50 [2] | pIC50 [3]
1 | C=CC(=O)Nc1ccc(-c2c(-c3ccc(Oc4cccc(C)n4)cc3)c(C(N)=O)c3cnccn23)cn1 [Example 3, 6-(6-acrylamidopyridin-3-yl)-7-(4-((6-methylpyridin-2-yl)oxy)phenyl)pyrrolo[1,2-a]pyrazine-8-carboxamide] | > 8.00 | > 8.00 | > 8.00 | – | – | –
2 | C=CC(=O)Nc1cc(C)c(-c2c(-c3ccc(Oc4cccc(C)n4)cc3)c(C(N)=O)c3cnccn23)cn1 [Example 4, 6-(6-acrylamido-4-methylpyridin-3-yl)-7-(4-((6-methylpyridin-2-yl)oxy)phenyl)pyrrolo[1,2-a]pyrazine-8-carboxamide] | – | – | – | 7.00 to 8.00 | 7.00 to 8.00 | 7.00 to 8.00
3 | Cc1cn2c(-c3ccc(NC(=O)/C=C/CN(C)C)cc3)c(-c3ccc(Oc4cccc(C)n4)cc3)c(C(N)=O)c2cn1 [Example 9, (E)-6-(4-(4-(dimethylamino)but-2-enamido)phenyl)-3-methyl-7-(4-((6-methylpyridin-2-yl)oxy)phenyl)pyrrolo[1,2-a]pyrazine-8-carboxamide] | – | > 8.00 | – | 6.00 to 7.00 | – | 7.00 to 8.00
4 | Cc1cn2c(-c3ccc(NC(=O)/C=C/CN(C)C)nc3)c(-c3ccc(Oc4cccc(C)n4)cc3)c(C(N)=O)c2cn1 [Example 10, (E)-6-(6-(4-(dimethylamino)but-2-enamido)pyridin-3-yl)-3-methyl-7-(4-((6-methylpyridin-2-yl)oxy)phenyl)pyrrolo[1,2-a]pyrazine-8-carboxamide] | – | > 8.00 | – | 7.00 to 8.00 | – | 7.00 to 8.00
5 | C=CC(=O)N1CCc2cc(-c3c(-c4ccc(Oc5cccc(C)n5)cc4)c(C(N)=O)c4cnccn34)ccc21 [Example 14, 6-(1-acryloylindolin-5-yl)-7-(4-((6-methylpyridin-2-yl)oxy)phenyl)pyrrolo[1,2-a]pyrazine-8-carboxamide] | > 8.00 | > 8.00 | > 8.00 | – | – | –
6 | C=CC(=O)Nc1ccc(-c2c(-c3ccc(Oc4cccc(C)n4)cc3)c(C(N)=O)c3ccncn23)cc1 [Example 15, 7-(4-acrylamidophenyl)-6-(4-((6-methylpyridin-2-yl)oxy)phenyl)pyrrolo[1,2-c]pyrimidine-5-carboxamide] | – | > 8.00 | – | 6.00 to 7.00 | – | 7.00 to 8.00
7 | C=CC(=O)Nc1ccc(-c2c(-c3ccc(Oc4cccc(C)n4)cc3)c(C(N)=O)c3cnc(OC)cn23)cc1 [Example 17, 6-(4-acrylamidophenyl)-3-methoxy-7-(4-((6-methylpyridin-2-yl)oxy)phenyl)pyrrolo[1,2-a]pyrazine-8-carboxamide] | – | > 8.00 | – | 7.00 to 8.00 | – | 7.00 to 8.00
8 | C=CC(=O)Nc1ccc(-c2c(-c3ccc(Oc4cccc(C)n4)cc3)c(C(N)=O)c3cnc(S(=O)(=O)NC)cn23)cc1 [Example 18, 6-(4-acrylamidophenyl)-7-(4-((6-methylpyridin-2-yl)oxy)phenyl)-3-(N-methylsulfamoyl)pyrrolo[1,2-a]pyrazine-8-carboxamide] | – | > 8.00 | – | 6.00 to 7.00 | – | 7.00 to 8.00
9 | C=CC(=O)Nc1ccc(-c2c(-c3ccc(Oc4nc(C)cs4)cc3)c(C(N)=O)c3cnccn23)cc1 [Example 19, 6-(4-acrylamidophenyl)-7-(4-((4-methylthiazol-2-yl)oxy)phenyl)pyrrolo[1,2-a]pyrazine-8-carboxamide] | – | > 8.00 | – | 7.00 to 8.00 | – | 7.00 to 8.00
10 | C=CC(=O)Nc1ccc(-c2c(-c3ccc(Oc4cccc(C)n4)cc3)c(C(N)=O)c3cccnn23)cc1 [Example 20, 7-(4-acrylamidophenyl)-6-(4-((6-methylpyridin-2-yl)oxy)phenyl)pyrrolo[1,2-b]pyridazine-5-carboxamide] | – | > 8.00 | – | 7.00 to 8.00 | – | 7.00 to 8.00
11 | C=CC(=O)Nc1ccc(-c2c(-c3ccc(Oc4cccc(C)n4)cc3)c(C(N)=O)c3cnc(C4CN(C)C4)cn23)cc1 [Example 21, 6-(4-acrylamidophenyl)-3-(1-methylazetidin-3-yl)-7-(4-((6-methylpyridin-2-yl)oxy)phenyl)pyrrolo[1,2-a]pyrazine-8-carboxamide] | – | > 8.00 | – | 6.00 to 7.00 | – | 7.00 to 8.00
12 | C=CC(=O)Nc1ccc(-c2c(-c3ccc(OC)cc3)c(C(N)=O)c3cnccn23)cc1 [Example 22, 6-(4-acrylamidophenyl)-7-(4-methoxyphenyl)pyrrolo[1,2-a]pyrazine-8-carboxamide] | – | – | – | 6.00 to 7.00 | 7.00 to 8.00 | 6.00 to 7.00
13 | C=CC(=O)Nc1ccc(-c2c(-c3ccc(Oc4cccc(C)n4)cc3)c(C#N)c3sccn23)cc1 [Example 24, N-(4-(7-cyano-6-(4-((6-methylpyridin-2-yl)oxy)phenyl)pyrrolo[2,1-b]thiazol-5-yl)phenyl) acrylamide] | < 6.00 | < 6.00 | < 6.00 | – | – | –
14 | C=CC(=O)Nc1ccc(-c2c(-c3ccc(Oc4cccc(C)n4)c(OC)c3)c(C(N)=O)c3cnccn23)cc1 [Example 25, 6-(4-acrylamidophenyl)-7-(3-methoxy-4-((6-methylpyridin-2-yl)oxy)phenyl)pyrrolo[1,2-a]pyrazine-8-carboxamide] | – | > 8.00 | – | 6.00 to 7.00 | – | 7.00 to 8.00
15 | C=CC(=O)Nc1ccc(-c2c(-c3ccc(Oc4ccccn4)cc3)c(C(N)=O)c3cnccn23)cc1 [Example 26, 6-(4-acrylamidophenyl)-7-(4-(pyridin-2-yloxy)phenyl)pyrrolo[1,2-a]pyrazine-8-carboxamide] | – | > 8.00 | – | 6.00 to 7.00 | – | 7.00 to 8.00
16 | C=CC(=O)Nc1ccc(-c2c(-c3ccc(S(=O)(=O)C4CC4)cc3)c(C(N)=O)c3cnccn23)cc1 [Example 27, 6-(4-acrylamidophenyl)-7-(4-(cyclopropylsulfonyl)phenyl)pyrrolo[1,2-a]pyrazine-8-carboxamide] | < 6.00 | – | – | – | 6.00 to 7.00 | 6.00 to 7.00
17 | C=CC(=O)Nc1ccc(-c2c(-c3ccc(OC4CCCC4)cc3)c(C(N)=O)c3cnccn23)cc1 [Example 28, 6-(4-acrylamidophenyl)-7-(4-(cyclopentyloxy)phenyl)pyrrolo[1,2-a]pyrazine-8-carboxamide] | – | > 8.00 | > 8.00 | 6.00 to 7.00 | – | –
18 | C=CC(=O)Nc1ccc(-c2c(-c3ccc(Oc4cccc(C)n4)cc3)c(C(N)=O)c3cnc(CN(C)C)cn23)cc1 [Example 29, 6-(4-acrylamidophenyl)-3-((dimethylamino)methyl)-7-(4-((6-methylpyridin-2-yl)oxy)phenyl)pyrrolo[1,2-a]pyrazine-8-carboxamide] | < 6.00 | – | – | – | 7.00 to 8.00 | 6.00 to 7.00
19 | C=CC(=O)Nc1ccc(-c2c(-c3ccc(C(=O)N4CC5(CCC5)C4)cc3)c(C(N)=O)c3cnccn23)cc1 [Example 30, 7-(4-(2-azaspiro[3.3]heptane-2-carbonyl)phenyl)-6-(4-acrylamidophenyl)pyrrolo[1,2-a]pyrazine-8-carboxamide] | – | – | – | 6.00 to 7.00 | 7.00 to 8.00 | 6.00 to 7.00
20 | C=CC(=O)Nc1ccc(-c2c(-c3ccc(Oc4cccc(C)n4)c(F)c3)c(C(N)=O)c3cnccn23)cc1 [Example 32, 6-(4-acrylamidophenyl)-7-(3-fluoro-4-((6-methylpyridin-2-yl)oxy)phenyl)pyrrolo[1,2-a]pyrazine-8-carboxamide] | – | > 8.00 | > 8.00 | 7.00 to 8.00 | – | –
21 | C=CC(=O)Nc1ccc(-c2c(-c3ccc(Oc4nccc(C)n4)c(F)c3)c(C(N)=O)c3cnccn23)cc1 [Example 33, 6-(4-acrylamidophenyl)-7-(3-fluoro-4-((4-methylpyrimidin-2-yl)oxy)phenyl)pyrrolo[1,2-a]pyrazine-8-carboxamide] | – | > 8.00 | – | 7.00 to 8.00 | – | 7.00 to 8.00
22 | C=C(C)C(=O)Nc1ccc(-c2c(-c3ccc(Oc4nccc(C)n4)c(F)c3)c(C(N)=O)c3cnccn23)cc1 [Example 34, 7-(3-fluoro-4-((4-methylpyrimidin-2-yl)oxy)phenyl)-6-(4-methacrylamidophenyl)pyrrolo[1,2-a]pyrazine-8-carboxamide] | < 6.00 | – | – | – | 6.00 to 7.00 | 6.00 to 7.00
23 | C=CC(=O)Nc1ccc(-c2c(-c3ccc(Oc4nccc(C)n4)c(F)c3)c(C(N)=O)c3cnc(C)cn23)cc1 [Example 35, 6-(4-acrylamidophenyl)-7-(3-fluoro-4-((4-methylpyrimidin-2-yl)oxy)phenyl)-3-methylpyrrolo[1,2-a]pyrazine-8-carboxamide] | – | > 8.00 | > 8.00 | 7.00 to 8.00 | – | –
24 | C=CC(=O)Nc1ccc(-c2c(-c3ccc(Oc4nccc(C)n4)c(F)c3)c(C(N)=O)c3cnc(C)cn23)cn1 [Example 36, 6-(6-acrylamidopyridin-3-yl)-7-(3-fluoro-4-((4-methylpyrimidin-2-yl)oxy)phenyl)-3-methylpyrrolo[1,2-a]pyrazine-8-carboxamide] | – | > 8.00 | > 8.00 | 7.00 to 8.00 | – | –
25 | C=CC(=O)Nc1ccc(-c2c(-c3ccc(Oc4nccc(C)n4)c(F)c3)c(C(N)=O)c3cnc(C)cn23)cc1C [Example 37, 6-(4-acrylamido-3-methylphenyl)-7-(3-fluoro-4-((4-methylpyrimidin-2-yl)oxy)phenyl)-3-methylpyrrolo[1,2-a]pyrazine-8-carboxamide] | < 6.00 | – | – | – | 7.00 to 8.00 | 6.00 to 7.00
26 | C=C(F)C(=O)Nc1ccc(-c2c(-c3ccc(Oc4nccc(C)n4)c(F)c3)c(C(N)=O)c3ccccn23)cc1 [Example 107, 2-(3-fluoro-4-((4-methylpyrimidin-2-yl)oxy)phenyl)-3-(4-(2-fluoroacrylamido)phenyl) indolizine-1-carboxamide] | – | – | – | 6.00 to 7.00 | – | 7.00 to 8.00
